Measurements published in PubChem BioAssay (NCI).
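A five-concentration, 48-hour dose response in 96-well plates underlies each endpoint, interpolated linearly between surrounding concentrations. TGI denotes the concentration required for complete inhibition of growth.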

Experiments:
Test in all cases: NCI-60 cell line screen, 48 h
[1] = system: UO-31 renal
[2] = system: HT29 colon
[3] = system: ACHN renal
[4] = system: SR leukemia
[5] = system: 786-0 renal
[6] = system: SK-OV-3 ovarian
[7] = system: HOP-62 NSCLC
[8] = system: HCC-2998 colon
[9] = system: UACC-257 melanoma
[10] = system: OVCAR-3 ovarian
[11] = system: SF-295 CNS
[12] = system: HL-60(TB) leukemia
[13] = system: OVCAR-5 ovarian
[14] = system: MDA-MB-435
[15] = system: SF-268 CNS
[16] = system: MALME-3M melanoma
[17] = system: SN12C renal
[18] = system: MOLT-4 leukemia
[19] = system: LOX IMVI melanoma
[20] = system: HCT-116 colon
[21] = system: MDA-MB-231 breast
[22] = system: CCRF-CEM leukemia
[23] = system: MDA-N
[24] = system: NCI-H460 lung
[25] = system: NCI/ADR-RES ovarian
[26] = system: SF-539 CNS
[27] = system: SNB-75 CNS
[28] = system: DU-145 prostate
[29] = system: EKVX NSCLC
[30] = system: HCT-15 colon
[31] = system: BT-549 breast
[32] = system: A549 NSCLC
[33] = system: MCF7 breast
[34] = system: CAKI-1 renal
[35] = system: SK-MEL-28 melanoma
[36] = system: SW-620 colon
[37] = system: RPMI-8226 leukemia
[38] = system: M14 melanoma
[39] = system: COLO 205 colon
[40] = system: IGROV1 ovarian
[41] = system: T-47D breast
[42] = system: TK-10 renal
[43] = system: U251 CNS
[44] = system: KM12 colon
[45] = system: OVCAR-8 ovarian
[46] = system: HS 578T breast
[47] = system: HOP-92 NSCLC
[48] = system: PC-3 prostate
[49] = system: NCI-H23 lung
[50] = system: SNB-19 CNS
[51] = system: OVCAR-4 ovarian
[52] = system: SK-MEL-5 melanoma
[53] = system: NCI-H226 lung
[54] = system: SK-MEL-2 melanoma
[55] = system: UACC-62 melanoma
[56] = system: RXF 393 renal
[57] = system: K-562 leukemia
[58] = system: NCI-H522 lung

Measured: TGI

O=C(OCCN1CCCCCC1)C(c1ccsc1)C1CCCCC1 (stereo not given)
32.4 µM: [11]
28.4 µM: [23]
57.2 µM: [4]
32.2 µM: [19] | [27]
37.8 µM: [46]
31.6 µM: [2]
33.2 µM: [28]
31.5 µM: [8]
28.8 µM: [10]
33.1 µM: [3]
29.6 µM: [20] | [31]
33 µM: [24] | [33]
36.8 µM: [15]
26.9 µM: [1]
44.5 µM: [32]
33.5 µM: [42]
30.8 µM: [26] | [30]
40.4 µM: [50]
50.6 µM: [18]
32.1 µM: [37] | [43] | [44]
40.2 µM: [22]
32.8 µM: [17] | [38]
33.4 µM: [36]
34.5 µM: [9] | [45]
31.8 µM: [5] | [6] | [21]
32.3 µM: [14]
24.2 µM: [40]
31.2 µM: [47]
22.7 µM: [39]
28.2 µM: [16]
32.5 µM: [13]
29.9 µM: [7]
44.9 µM: [48]
17.8 µM: [41]
70.6 µM: [12]
36.2 µM: [35]
35.7 µM: [29]
39 µM: [49]
29.4 µM: [34]
31.4 µM: [25]

NC1CSc2ccccc2NC1=O (stereo not given)
not listed: [47]
> 100 µM: all other assays above

CN(C)c1ccc(/C=C2\Oc3ccccc3C2=O)cc1
not listed: [13] | [16] | [19] | [47] | [54]
> 100 µM: all other assays above

COc1ccc(CCn2nccc2C)cc1
not listed: [5] | [8] | [47] | [53] | [54] | [58]
> 100 µM: all other assays above

CN(C(=O)CC(=O)CP(=O)(c1ccccc1)c1ccccc1)c1ccccc1
not listed: [13] | [16] | [19] | [47] | [54]
> 100 µM: all other assays above
